{"source": "paper PMC11085682", "about": "“Identification of Novel Peptides in Distillers’ Grains as Antioxidants, α-Glucosidase Inhibitors, and Insulin Sensitizers: In Silico and In Vitro Evaluation” (Nutrients, 2024)", "key": {"HepG2 cells [1]": {"system": "HepG2 cells", "test": "MTT cytotoxicity of samples and insulin in HepG2 cells", "description": "(§1) The MTT method was adopted to assess the impact of samples and insulin on cell viability, helping determine the optimal concentrations of insulin and the samples. The experimental protocol for improving insulin resistance followed previous methods. Details are provided in the Supplementary Materials. In this experiment, various groups were established, incorporating the blank control group (K), model group (M), peptide sample groups, and the positive control group (treated with rosiglitazone).\n(§2) […] of the main pathogenic mechanisms of type 2 diabetes mellitus, and the liver is an important site for insulin to function. […] As the cellular insulin resistance condition arises, the utilization of glucose by the cells decreases, and the consumption of glucose decreases. Therefore, insulin resistance is usually expressed by the consumption of glucose in studies. Using the MTT method, this study explored the effect of different concentrations of insulin on cellular glucose consumption after 24 h of action with HepG2 cells."}, "α-glucosidase [2]": {"biological_target": "α-glucosidase (Saccharomyces cerevisiae, UniProt P53341)", "sequence (P53341 whole entry)": "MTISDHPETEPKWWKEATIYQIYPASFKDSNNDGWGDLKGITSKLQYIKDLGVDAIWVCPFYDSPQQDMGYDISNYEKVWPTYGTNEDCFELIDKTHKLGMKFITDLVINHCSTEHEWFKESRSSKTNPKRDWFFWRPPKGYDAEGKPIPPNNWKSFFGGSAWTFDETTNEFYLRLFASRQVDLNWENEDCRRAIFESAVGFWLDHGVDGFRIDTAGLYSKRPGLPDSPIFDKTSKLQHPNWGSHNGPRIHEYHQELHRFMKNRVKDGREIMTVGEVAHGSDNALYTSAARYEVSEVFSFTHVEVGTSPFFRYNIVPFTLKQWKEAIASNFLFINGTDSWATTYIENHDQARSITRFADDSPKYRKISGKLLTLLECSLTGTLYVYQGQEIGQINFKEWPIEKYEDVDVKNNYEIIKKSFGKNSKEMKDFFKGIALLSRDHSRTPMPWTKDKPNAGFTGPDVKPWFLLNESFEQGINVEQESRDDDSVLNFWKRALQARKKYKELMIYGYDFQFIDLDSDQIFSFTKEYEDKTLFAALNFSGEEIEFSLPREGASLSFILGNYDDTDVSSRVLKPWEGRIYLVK", "test": "α-glucosidase inhibitory effect (pNPG)", "type": "biochemical", "conditions": "synthetic peptides; PBS pH 6.8, 37 °C, 15 min pre-incubation, 30 min with pNPG, absorbance 405 nm; median (25%, 75% quartiles), at least three experiments; read-out: IC50, α-glucosidase inhibition", "method": "Distillers’ grains were generously supplied by the Suzhou Bridge Wine & Spirits Co. (Suzhou, China). Peptides YPLPR, AFEPLR, and NDPF (purity ≥ 98%) were composed by All Peptide Biotechnology Co., Ltd. (Hangzhou, China). Dulbecco’s Modified Eagle Medium (DMEM) medium, embracing 10.0% fetal bovine serum (FBS) and 1.0 mol/L phosphate buffer (PBS) was bought from Gibco (Life Technologies, Inc., Carlsbad, CA, USA). Alkaline protease (2.4 U/g), penicillin-streptomycin (100.0 U/mL penicillin-100.0 […] streptomycin), 3-(4,5-dimethylthiazol-2)-2,5-diphenyltetrazolium bromide (MTT) powder, 2′,7′-dichlorofluorescence yellow diacetate (DCFH-DA), and trypsin solution were purchased from Solarbio (Beijing Solarbio Science and Technology Co., Ltd., Beijing, China). The HepG2 cell line was acquired from the Kunming Institute of Animal Science, Chinese Academy of Sciences (Kunming, China). Rosiglitazone, insulin, ABTS, DPPH, α-glucosidase derived from Saccharomyces cerevisiae (type I, protein content of at least 30.0 units per milligram), and p-nitrobenzene α-D-glucopyranoside (pNPG, with a minimum purity of 99.0%) were purchased from Sigma-Aldrich (located in Shanghai, China). The glucose kit was purchased from Nanjing Jiancheng Co. (Nanjinng, China). […]\nThe inhibitory effect on α-glucosidase activity of the protein hydrolysates from distillers’ grains or three selected peptides was assessed following the methodology outlined by Zhang et al. (2018) with slight modifications, and the concrete method is shown in the Supplementary Materials. […]\nThe inhibitory effect on α-glucosidase activity of the protein hydrolysates from distillersʹ grains or three selected peptides was assessed following the methodology outlined by Zhang et al. (2018) with slight modifications. […]\nThe absorbance of the resulting reaction mixture was measured at a wavelength […]\nof 405 nm using an enzyme-labeled instrument. […] In this formula, ʺAʺ represents the absorbance value. […]\nThe antioxidant properties of vinasse hydrolysates or three screening peptides were evaluated by DPPH and ABTS free radical scavenging […]"}, "HepG2 cells [3]": {"system": "HepG2 cells", "test": "H2O2 effect on cell viability (cell damage model)", "type": "cell-based, human", "conditions": "H2O2 1.2 mmol/L; median (25%, 75% quartiles), n = 4", "description": "Excessive ROS may attack normal cells or biological macromolecules and undergo oxidative stress, causing severe damage to cellular structures, which causes many diabetic complications and chronic diseases. Accordingly, in this study, the scavenging activities of ABTS and DPPH radicals of bioactive peptides were not only investigated by in vitro experiments, but their antioxidant activity was also further investigated at the cellular level. The cell damage rate of the H2O2-induced cell damage model was generally around 50%. […] When the concentration of H2O2 was 1.2 mmol/L, the cell viability rate was 56.38 (50.33, 68.00) %, so the concentration of H2O2 of 1.2 mmol/L established the cell damage model in this study. […] Consistent with 3.6, YPLPR, AFEPLR, and NDPF were used at 1.0 mmol/L for subsequent experiments."}, "HepG2 cells [4]": {"system": "HepG2 cells", "test": "H2O2-induced intracellular ROS scavenging in HepG2 cells (DCFH-DA, flow cytometry)", "type": "cell-based, human", "conditions": "VC 10.0 µmol/L 24 h, then 1.2 mmol/L H2O2 seven hours, median (25%, 75% quartiles), n = 4, model M 139.46 %, blank K 101 %", "method": "According to Liu et al. (2020), the H2O2-induced scavenging activity of reactive oxygen species was evaluated. In this experiment, various groups were established, including the blank, sample, positive control, and model groups. Refer to the Supplementary Materials for specific information. […]\nand NDPF concentrations were 1.0 mmol/L, and the positive control rosiglitazone concentration was 20.0 µmol/L. At the end of the incubation, the glucose content in the culture medium was measured using the glucose oxidase-peroxidase method kit by Nanjing Jiancheng Biological Co., Ltd., and the glucose content was calibrated by measuring the cell activity using the MTT […]\n7. Evaluation of scavenging capacity against intracellular ROS\nHepG2 cells (2.0 mL/well, 1×10^4 cells/well) were inoculated in 6-well plate and cultured overnight. VC (10.0 µmol/L) or peptides YPLPR, AFEPLR, and NDPF (1.0 mmol/L) were added to each well, and the cells were incubated for an additional 24 hours. Following the incubation, the culture medium was aspirated, and the cells were washed thoroughly with PBS twice. Subsequently, cells in all experimental groups, except for the control group, were exposed to 1.2 mmol/L H2O2 for seven hours. […] After incubation, the cells were rinsed twice with culture medium devoid of FBS and analyzed using a Millipore flow cytometer (Guava easy Cyte 6-2L, Billerica, MA) within 30 minutes."}, "HepG2 cells [5]": {"system": "HepG2 cells", "test": "Glucose consumption of insulin-resistant HepG2 cells", "type": "cell-based, human", "conditions": "20.0 µmol/L positive control, 24 h, after 25.0 µmol/L insulin 24 h; median (25%, 75% quartiles), n = 6; model group M 6.08 (5.80, 6.81) mmol/L", "description": "as §1, §2"}, "α-glucosidase [6]": {"system": "α-glucosidase", "conditions": "cited from earlier work; for α-glucosidase activity inhibition: peptides from Spanish dry-cured ham", "description": "Since these peptides have small molecular weights, they are more likely to be absorbed intact by the gastrointestinal tract after oral ingestion, thereby exerting systemic or local effects. Consequently, the study of bioactive peptides has progressively emerged as a prominent research area in recent years. Numerous studies have dem ... || α-glucosidase is a membrane-associated enzyme. Inhibition of α-glucosidase activity can reduce carbohydrate hydrolysis, thus reducing sugar absorption and effectively controlling diabetes.. […] In the study on rice wine peptides, the α-glucosidase inhi ... || Due to the fact that α-glucosidase is a more important and directly regulated target in the treatment of diabetes, the potential inhibitory activity of α-glucosidase was used as the main condition of inquiry for further analysis. […] Therefore, this peptide was selected as a positive control to facilitate the analysis of the current study, and its affinity grading after molecular docking with α-glucosidase was −9.1 kcal/mol. Four peptides, YPLPR, AFEPLR, NDPF, and WN ... || (+ 1 further places)"}, "[7]": {"design": "method as in doi:10.1016/j.jff.2016.08.021", "conditions": "at different concentrations (5–150 mg/mL); cited from earlier work"}, "[8]": {"conditions": "previously screened from rice wine peptides; no reference number printed in the sentence; read-out: IC50, ABTS radical scavenging capacity; cited from earlier work"}, "[9]": {"conditions": "previously screened from rice wine peptides; no reference number printed in the sentence; read-out: IC50, DPPH radical scavenging capacity; cited from earlier work"}, "HepG2 cells [10]": {"system": "HepG2 cells", "conditions": "cited from earlier work; for Glucose consumption in HepG2 cells compared to the model group: walnut-derived peptides; for Insulin resistance in HepG2 cells exposed to high glucose: from goat milk casein hydrolysate", "description": "In this study, the effect of YPLPR, AFEPLR, and NDPF on the glucose consumption of HepG2 cells in an insulin resistance state was investigated. […] The glucose consumption of peptides YPLPR, AFEPLR, and NDPF were 9.56 (9.37, 9.83), 10.56 ..."}, "HepG2 cells [11]": {"system": "HepG2 cells", "test": "Effect of insulin concentration on glucose consumption of HepG2 cells", "type": "cell-based, human", "conditions": "insulin 25.0 µmol/L, 24 h", "description": "Details are provided in the Supplementary Materials."}, "[12]": {"conditions": "at 1.0 mmol/mL (so in the source)"}, "[13]": {"conditions": "peptides from malt, read-out: IC50, α-glucosidase inhibitory activity"}, "[14]": {"conditions": "peptides from rice wine, read-out: IC50, α-glucosidase depressant activity"}}, "note": "Read-outs that look alike come from different tables or passages of the source. Where a SMILES comes first, the peptide text is derived from it. Where no end group is shown, it is not given here."}
{"compound": "NC(=O)C[C@H](N)C(=O)N[C@@H](CC(=O)O)C(=O)N1CCC[C@H]1C(=O)N[C@@H](Cc1ccccc1)C(=O)O", "note": "[NDPF] (H-NDPF-OH)", "values": [{"measurement": "Cytotoxicity (MTT)", "setting": "HepG2 cells [1]; [12]", "value": "no cytotoxicity"}, {"measurement": "IC50", "setting": "α-glucosidase [2]", "value": 6.24, "unit": "mM"}]}
{"compound": "OO", "note": "[Peptide H2O2]", "values": [{"measurement": "Cell viability rate", "setting": "HepG2 cells [3]", "value": "56.38 (50.33, 68.00) %"}]}
{"compound": "O=C1O[C@H]([C@@H](O)CO)C(O)=C1O", "note": "[VC]", "values": [{"measurement": "Relative intracellular ROS content", "setting": "HepG2 cells [4]", "value": "92.03 (90.83, 98.11) %"}]}
{"compound": "CN(CCOc1ccc(CC2SC(=O)NC2=O)cc1)c1ccccn1", "note": "(stereo not drawn) [rosiglitazone]", "values": [{"measurement": "Glucose consumption", "setting": "HepG2 cells [5]", "value": "9.09 (8.29, 9.23) mmol/L"}]}
{"compound": "AEEEYPDL [peptide from Spanish dry-cured ham]", "values": [{"measurement": "α-glucosidase activity inhibition", "setting": "α-glucosidase [6]", "value": "effectively inhibited α-glucosidase activity"}]}
{"compound": "AFEPLR [AFEPLR]", "values": [{"measurement": "Cytotoxicity (MTT)", "setting": "HepG2 cells [1]; [12]", "value": "no cytotoxicity"}, {"measurement": "IC50", "setting": "α-glucosidase [2]", "value": 8.69, "unit": "mM"}]}
{"compound": "AGGFR [peptide from malt]", "values": [{"measurement": "IC50", "setting": "α-glucosidase [6]; [13]", "value": "8.66 ± 0.33", "unit": "mM"}]}
{"compound": "AVPYPQ [peptide identified in the research of Pepe et al. (2016)]", "values": [{"measurement": "antioxidant activity", "setting": "[7]", "value": "showed antioxidant activity"}]}
{"compound": "EAMAPK [peptide identified in the research of Pepe et al. (2016)]", "values": [{"measurement": "antioxidant activity", "setting": "[7]", "value": "showed antioxidant activity"}]}
{"compound": "FTYPR [peptide previously screened from rice wine peptides by molecular simulation]", "values": [{"measurement": "IC50", "setting": "[8]", "value": 2.64, "unit": "mM"}, {"measurement": "IC50", "setting": "α-glucosidase [6]; [14]", "value": 3.57, "unit": "mM"}, {"measurement": "IC50", "setting": "[9]", "value": 6.09, "unit": "mM"}]}
{"compound": "LDLQR [peptide from malt]", "values": [{"measurement": "IC50", "setting": "α-glucosidase [6]; [13]", "value": "8.59 ± 0.25", "unit": "mM"}]}
{"compound": "LDNFR [peptide from malt]", "values": [{"measurement": "IC50", "setting": "α-glucosidase [6]; [13]", "value": "9.21 ± 0.22", "unit": "mM"}]}
{"compound": "LGVGG [peptide from Spanish dry-cured ham]", "values": [{"measurement": "α-glucosidase activity inhibition", "setting": "α-glucosidase [6]", "value": "effectively inhibited α-glucosidase activity"}]}
{"compound": "LRYL [walnut-derived peptide]", "values": [{"measurement": "Glucose consumption in HepG2 cells compared to the model group", "setting": "HepG2 cells [10]", "value": "increased glucose consumption"}]}
{"compound": "LVRL [walnut-derived peptide]", "values": [{"measurement": "Glucose consumption in HepG2 cells compared to the model group", "setting": "HepG2 cells [10]", "value": "increased glucose consumption"}]}
{"compound": "NPWDQVKR [peptide extracted from goat milk casein hydrolysate]", "values": [{"measurement": "Insulin resistance in HepG2 cells exposed to high glucose", "setting": "HepG2 cells [10]", "value": "improvement in insulin resistance"}]}
{"compound": "QEPVLGPVRGPFP [peptide extracted from goat milk casein hydrolysate]", "values": [{"measurement": "Insulin resistance in HepG2 cells exposed to high glucose", "setting": "HepG2 cells [10]", "value": "improvement in insulin resistance"}]}
{"compound": "QFTPR [peptide from previous studies on rice wine]", "values": [{"measurement": "IC50", "setting": "α-glucosidase [6]; [14]", "value": 9.18, "unit": "mM"}]}
{"compound": "SDIPNPIGSE [peptide extracted from goat milk casein hydrolysate]", "values": [{"measurement": "Insulin resistance in HepG2 cells exposed to high glucose", "setting": "HepG2 cells [10]", "value": "improvement in insulin resistance"}]}
{"compound": "SSLFR [peptide from previous studies on rice wine]", "values": [{"measurement": "IC50", "setting": "α-glucosidase [6]; [14]", "value": 7.73, "unit": "mM"}]}
{"compound": "VLLALVLLR [walnut-derived peptide]", "values": [{"measurement": "Glucose consumption in HepG2 cells compared to the model group", "setting": "HepG2 cells [10]", "value": "increased glucose consumption"}]}
{"compound": "WLRL [WLRL peptide from soybean protein, positive control]", "values": [{"measurement": "inhibitory effect toward α-glucosidase", "setting": "α-glucosidase [6]; peptide from soybean protein", "value": "good inhibitory effect toward α-glucosidase"}]}
{"compound": "YPLPR [YPLPR]", "values": [{"measurement": "Cytotoxicity (MTT)", "setting": "HepG2 cells [1]; [12]", "value": "no cytotoxicity"}, {"measurement": "IC50", "setting": "α-glucosidase [2]", "value": 5.31, "unit": "mM"}]}
{"compound": "insulin: used to establish the insulin resistance model", "values": [{"measurement": "Cytotoxicity (MTT)", "setting": "HepG2 cells [1]; insulin 25.0 µmol/L", "value": "not cytotoxic"}, {"measurement": "Cellular glucose consumption compared with the group without insulin", "setting": "HepG2 cells [11]", "value": "significantly reduced"}]}
